Among the data in ChEMBL document CHEMBL2331470 (J Med Chem, 2013) are IC50 and inhibition values, retold here.

Active and inactive are the calls of the source. The calls are words filed in the database; no cut-off is given here.

One assay deals with Histone deacetylase 4 (Homo sapiens, UniProt P56524). As to the kind of experiment: Inhibition of HDAC4 (unknown origin) assessed as fluorescence intensity measured after 60 mins incubation at room temperature by trypsin-free microfluidic lab-on-a-chip assay.
Histone deacetylase 4, sequence (P56524 whole entry): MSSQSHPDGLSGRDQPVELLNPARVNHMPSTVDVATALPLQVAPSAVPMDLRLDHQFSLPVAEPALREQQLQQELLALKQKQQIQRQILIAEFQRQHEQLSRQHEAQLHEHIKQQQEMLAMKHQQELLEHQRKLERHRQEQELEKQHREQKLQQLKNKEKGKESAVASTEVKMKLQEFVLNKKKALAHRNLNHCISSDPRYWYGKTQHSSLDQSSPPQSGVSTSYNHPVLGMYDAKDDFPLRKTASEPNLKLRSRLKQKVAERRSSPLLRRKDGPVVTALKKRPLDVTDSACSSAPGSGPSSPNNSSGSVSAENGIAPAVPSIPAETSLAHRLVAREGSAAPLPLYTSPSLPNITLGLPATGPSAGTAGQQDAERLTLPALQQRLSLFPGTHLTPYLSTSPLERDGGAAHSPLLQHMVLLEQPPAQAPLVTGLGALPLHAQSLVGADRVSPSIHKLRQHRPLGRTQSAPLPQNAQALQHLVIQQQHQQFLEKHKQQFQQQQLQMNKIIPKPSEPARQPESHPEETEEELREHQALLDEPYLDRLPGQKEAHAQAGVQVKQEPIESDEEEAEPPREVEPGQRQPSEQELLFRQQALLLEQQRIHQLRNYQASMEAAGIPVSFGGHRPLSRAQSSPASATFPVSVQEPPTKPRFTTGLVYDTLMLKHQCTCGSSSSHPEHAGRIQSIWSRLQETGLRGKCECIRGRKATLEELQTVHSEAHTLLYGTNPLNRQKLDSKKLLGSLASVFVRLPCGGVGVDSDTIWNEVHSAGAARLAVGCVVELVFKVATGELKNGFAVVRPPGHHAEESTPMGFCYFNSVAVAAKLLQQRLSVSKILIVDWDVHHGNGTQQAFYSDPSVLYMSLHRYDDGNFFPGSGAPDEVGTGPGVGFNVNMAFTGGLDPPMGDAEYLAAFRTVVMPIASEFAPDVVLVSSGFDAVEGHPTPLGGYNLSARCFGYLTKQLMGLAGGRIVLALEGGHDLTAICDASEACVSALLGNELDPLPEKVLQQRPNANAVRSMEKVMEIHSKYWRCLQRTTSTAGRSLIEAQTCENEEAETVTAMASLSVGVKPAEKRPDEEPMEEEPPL
A further assay concerns the target T1, Histone deacetylase 8 (Homo sapiens, UniProt Q9BY41).
T1 sequence (Q9BY41 whole entry): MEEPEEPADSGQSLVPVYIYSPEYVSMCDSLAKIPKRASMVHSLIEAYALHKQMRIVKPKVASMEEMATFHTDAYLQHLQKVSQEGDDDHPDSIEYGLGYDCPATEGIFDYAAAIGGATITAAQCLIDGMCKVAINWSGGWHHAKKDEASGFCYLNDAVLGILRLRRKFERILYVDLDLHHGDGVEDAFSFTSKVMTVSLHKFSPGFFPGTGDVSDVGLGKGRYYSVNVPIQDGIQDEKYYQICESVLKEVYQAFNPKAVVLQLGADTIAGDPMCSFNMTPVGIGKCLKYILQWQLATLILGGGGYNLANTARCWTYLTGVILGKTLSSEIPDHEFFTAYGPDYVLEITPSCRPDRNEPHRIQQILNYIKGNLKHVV
As to the kind of experiment: Inhibition of HDAC8 (unknown origin) assessed as fluorescence intensity measured after 60 mins incubation at room temperature by trypsin-free microfluidic lab-on-a-chip assay.

The next assay has as its target Histone deacetylase 2 (Homo sapiens, UniProt Q92769). Briefly: Inhibition of HDAC2 (unknown origin) assessed as fluorescence intensity measured after 60 mins incubation at room temperature by trypsin-free microfluidic lab-on-a-chip assay.
Assay [1] concerns the target T2, Protein deacetylase HDAC6 (Homo sapiens, UniProt Q9UBN7).
T2 sequence (Q9UBN7 whole entry): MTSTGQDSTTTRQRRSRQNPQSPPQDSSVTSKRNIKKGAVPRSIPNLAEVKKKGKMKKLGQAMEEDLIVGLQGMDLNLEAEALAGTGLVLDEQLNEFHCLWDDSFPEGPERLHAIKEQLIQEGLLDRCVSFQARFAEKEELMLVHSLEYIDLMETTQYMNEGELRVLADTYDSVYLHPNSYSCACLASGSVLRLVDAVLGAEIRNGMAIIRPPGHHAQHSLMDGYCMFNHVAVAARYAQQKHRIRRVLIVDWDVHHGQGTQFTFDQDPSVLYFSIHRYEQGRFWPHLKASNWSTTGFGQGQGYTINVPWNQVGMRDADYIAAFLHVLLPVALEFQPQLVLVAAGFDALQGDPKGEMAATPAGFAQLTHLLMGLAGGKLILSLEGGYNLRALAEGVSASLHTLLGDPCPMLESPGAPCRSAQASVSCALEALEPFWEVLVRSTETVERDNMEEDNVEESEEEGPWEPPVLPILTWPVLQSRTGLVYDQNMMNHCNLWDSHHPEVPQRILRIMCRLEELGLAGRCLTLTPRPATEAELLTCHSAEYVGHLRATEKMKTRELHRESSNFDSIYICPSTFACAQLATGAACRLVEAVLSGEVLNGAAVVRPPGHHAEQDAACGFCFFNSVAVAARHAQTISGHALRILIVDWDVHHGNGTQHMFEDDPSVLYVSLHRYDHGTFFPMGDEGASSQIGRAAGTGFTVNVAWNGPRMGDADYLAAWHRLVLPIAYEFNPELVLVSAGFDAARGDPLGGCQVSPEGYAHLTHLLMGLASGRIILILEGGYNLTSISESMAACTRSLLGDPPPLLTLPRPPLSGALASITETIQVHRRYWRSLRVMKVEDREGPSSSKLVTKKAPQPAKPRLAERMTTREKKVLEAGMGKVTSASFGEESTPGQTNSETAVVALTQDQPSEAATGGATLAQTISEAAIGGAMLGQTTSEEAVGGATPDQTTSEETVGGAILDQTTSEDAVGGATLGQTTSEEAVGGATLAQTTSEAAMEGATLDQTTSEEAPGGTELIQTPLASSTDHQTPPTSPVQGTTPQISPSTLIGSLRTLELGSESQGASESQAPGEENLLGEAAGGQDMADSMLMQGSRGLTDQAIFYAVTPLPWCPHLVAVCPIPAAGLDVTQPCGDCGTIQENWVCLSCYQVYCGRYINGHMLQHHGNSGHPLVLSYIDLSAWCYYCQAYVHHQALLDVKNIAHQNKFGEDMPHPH
As to the kind of experiment: Inhibition of HDAC6 (unknown origin) assessed as fluorescence intensity measured after 60 mins incubation at room temperature by trypsin-free microfluidic lab-on-a-chip assay.

Assay [2] addresses T3, Histone deacetylase 3 (Homo sapiens, UniProt O15379). Briefly: Inhibition of HDAC3 in human HeLa cells assessed as increase in acetylated H3 at 30 uM measured after 24 hrs by Western blotting analysis. In kind it is cell-based. In general terms: Immunoblotting shows a protein as a band on a membrane.
For assay [3], the target named is T4, Protein deacetylase HDAC6 (Homo sapiens) (UniProt Q9UBN7).
T4 sequence (whole entry): T2 sequence (Q9UBN7 whole entry)
As to the kind of experiment: Inhibition of HDAC6 in human HeLa cells assessed as increase in acetylated alpha-tubulin measured after 24 hrs by Western blotting analysis. Format: cell-based.

For another assay, the target named is Histone deacetylase 9 (Homo sapiens, UniProt Q9UKV0). As to the kind of experiment: Inhibition of HDAC9 (unknown origin) assessed as fluorescence intensity measured after 60 mins incubation at room temperature by trypsin-free microfluidic lab-on-a-chip assay.
Histone deacetylase 9, sequence (Q9UKV0 whole entry): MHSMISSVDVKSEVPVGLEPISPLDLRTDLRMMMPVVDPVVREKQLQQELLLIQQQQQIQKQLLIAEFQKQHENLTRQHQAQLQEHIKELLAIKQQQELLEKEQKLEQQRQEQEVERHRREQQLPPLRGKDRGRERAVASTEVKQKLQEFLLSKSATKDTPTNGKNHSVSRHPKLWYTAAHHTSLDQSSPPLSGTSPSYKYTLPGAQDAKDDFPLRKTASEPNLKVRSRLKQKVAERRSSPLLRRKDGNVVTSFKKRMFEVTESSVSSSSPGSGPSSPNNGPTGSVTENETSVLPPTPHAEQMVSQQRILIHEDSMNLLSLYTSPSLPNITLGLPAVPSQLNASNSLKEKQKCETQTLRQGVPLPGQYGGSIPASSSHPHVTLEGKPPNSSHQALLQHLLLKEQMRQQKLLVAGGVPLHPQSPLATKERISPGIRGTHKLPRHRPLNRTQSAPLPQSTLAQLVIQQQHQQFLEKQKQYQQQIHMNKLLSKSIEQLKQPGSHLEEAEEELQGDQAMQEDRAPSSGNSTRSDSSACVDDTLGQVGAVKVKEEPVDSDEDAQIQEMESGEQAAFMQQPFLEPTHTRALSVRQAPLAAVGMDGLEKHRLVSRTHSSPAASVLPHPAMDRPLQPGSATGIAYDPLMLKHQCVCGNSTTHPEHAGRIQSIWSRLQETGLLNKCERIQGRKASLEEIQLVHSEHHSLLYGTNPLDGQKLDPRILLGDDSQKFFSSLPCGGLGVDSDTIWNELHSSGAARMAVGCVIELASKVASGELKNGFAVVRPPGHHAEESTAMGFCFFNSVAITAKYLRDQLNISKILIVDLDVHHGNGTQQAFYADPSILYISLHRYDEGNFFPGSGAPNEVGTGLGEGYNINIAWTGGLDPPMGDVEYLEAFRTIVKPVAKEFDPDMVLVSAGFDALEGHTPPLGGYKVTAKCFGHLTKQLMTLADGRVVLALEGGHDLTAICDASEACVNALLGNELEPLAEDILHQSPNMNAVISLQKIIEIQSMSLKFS
In the next assay the target is Histone deacetylase 5 (Homo sapiens, UniProt Q9UQL6). Briefly: Inhibition of HDAC5 (unknown origin) assessed as fluorescence intensity measured after 60 mins incubation at room temperature by trypsin-free microfluidic lab-on-a-chip assay.
Histone deacetylase 5, sequence (Q9UQL6 whole entry): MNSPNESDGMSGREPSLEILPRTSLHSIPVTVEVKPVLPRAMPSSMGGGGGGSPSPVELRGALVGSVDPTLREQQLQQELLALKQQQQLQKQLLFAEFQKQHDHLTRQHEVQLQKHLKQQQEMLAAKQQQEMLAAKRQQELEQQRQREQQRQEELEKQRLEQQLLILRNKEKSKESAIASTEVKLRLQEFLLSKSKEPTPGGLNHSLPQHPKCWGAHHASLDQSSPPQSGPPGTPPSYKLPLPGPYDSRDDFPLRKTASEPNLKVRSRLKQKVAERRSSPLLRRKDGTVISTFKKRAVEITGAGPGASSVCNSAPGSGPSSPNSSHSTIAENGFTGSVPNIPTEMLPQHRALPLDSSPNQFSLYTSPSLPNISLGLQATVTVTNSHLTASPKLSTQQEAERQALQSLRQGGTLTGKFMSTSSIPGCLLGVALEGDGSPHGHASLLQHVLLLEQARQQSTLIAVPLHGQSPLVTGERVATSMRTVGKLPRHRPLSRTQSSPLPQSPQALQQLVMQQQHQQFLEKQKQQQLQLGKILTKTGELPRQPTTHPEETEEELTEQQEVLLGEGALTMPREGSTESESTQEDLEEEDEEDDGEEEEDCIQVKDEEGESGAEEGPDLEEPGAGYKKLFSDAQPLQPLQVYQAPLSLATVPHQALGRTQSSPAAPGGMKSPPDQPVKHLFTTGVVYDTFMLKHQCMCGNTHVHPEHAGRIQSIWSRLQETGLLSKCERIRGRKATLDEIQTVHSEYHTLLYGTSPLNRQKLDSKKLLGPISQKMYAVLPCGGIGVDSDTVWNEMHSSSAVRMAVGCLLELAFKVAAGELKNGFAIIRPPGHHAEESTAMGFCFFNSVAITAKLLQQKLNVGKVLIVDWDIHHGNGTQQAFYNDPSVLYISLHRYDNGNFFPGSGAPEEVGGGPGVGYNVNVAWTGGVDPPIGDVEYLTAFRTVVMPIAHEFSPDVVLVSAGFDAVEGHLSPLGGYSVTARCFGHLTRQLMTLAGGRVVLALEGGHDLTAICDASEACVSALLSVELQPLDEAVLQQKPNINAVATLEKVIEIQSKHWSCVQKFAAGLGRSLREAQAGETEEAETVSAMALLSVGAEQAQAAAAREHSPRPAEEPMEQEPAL
In assay [4] the target is T3, Histone deacetylase 3. As to the kind of experiment: Inhibition of HDAC3 (unknown origin) assessed as fluorescence intensity measured after 60 mins incubation at room temperature by trypsin-free microfluidic lab-on-a-chip assay.
The target in the next assay is Histone deacetylase 1 (Homo sapiens, UniProt Q13547). Briefly: Inhibition of HDAC1 (unknown origin) assessed as fluorescence intensity measured after 60 mins incubation at room temperature by trypsin-free microfluidic lab-on-a-chip assay.
Histone deacetylase 1, sequence (Q13547 whole entry): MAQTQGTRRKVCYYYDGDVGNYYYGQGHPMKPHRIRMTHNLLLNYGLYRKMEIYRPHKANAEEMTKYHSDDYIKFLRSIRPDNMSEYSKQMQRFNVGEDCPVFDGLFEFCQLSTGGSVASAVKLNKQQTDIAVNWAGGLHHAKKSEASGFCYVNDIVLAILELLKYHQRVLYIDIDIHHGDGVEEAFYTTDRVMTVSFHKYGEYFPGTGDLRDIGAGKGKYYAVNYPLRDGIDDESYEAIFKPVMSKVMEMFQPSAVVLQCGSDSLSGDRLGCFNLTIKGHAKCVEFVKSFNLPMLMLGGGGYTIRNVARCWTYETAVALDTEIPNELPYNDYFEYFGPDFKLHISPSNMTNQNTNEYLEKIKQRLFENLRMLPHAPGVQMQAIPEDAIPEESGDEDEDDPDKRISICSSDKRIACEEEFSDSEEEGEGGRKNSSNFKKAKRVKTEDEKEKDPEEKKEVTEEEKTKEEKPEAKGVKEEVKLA

The term IC50 denotes the midpoint of a concentration-inhibition curve.

Histone deacetylase 2, sequence (Q92769 whole entry): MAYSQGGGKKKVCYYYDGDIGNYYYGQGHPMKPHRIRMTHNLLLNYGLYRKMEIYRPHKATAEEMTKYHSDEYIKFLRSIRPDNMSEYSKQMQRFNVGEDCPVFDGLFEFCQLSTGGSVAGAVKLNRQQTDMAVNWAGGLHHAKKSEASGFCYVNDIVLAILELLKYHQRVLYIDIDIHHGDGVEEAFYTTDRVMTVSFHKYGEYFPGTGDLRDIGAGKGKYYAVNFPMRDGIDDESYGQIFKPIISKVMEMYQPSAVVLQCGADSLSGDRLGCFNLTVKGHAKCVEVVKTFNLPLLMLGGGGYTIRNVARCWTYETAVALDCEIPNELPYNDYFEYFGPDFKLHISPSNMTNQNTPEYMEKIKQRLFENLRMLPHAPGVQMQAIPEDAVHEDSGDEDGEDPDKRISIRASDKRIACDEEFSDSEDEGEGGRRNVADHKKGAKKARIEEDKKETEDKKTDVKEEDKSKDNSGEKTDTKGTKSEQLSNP
T3 sequence (O15379 whole entry): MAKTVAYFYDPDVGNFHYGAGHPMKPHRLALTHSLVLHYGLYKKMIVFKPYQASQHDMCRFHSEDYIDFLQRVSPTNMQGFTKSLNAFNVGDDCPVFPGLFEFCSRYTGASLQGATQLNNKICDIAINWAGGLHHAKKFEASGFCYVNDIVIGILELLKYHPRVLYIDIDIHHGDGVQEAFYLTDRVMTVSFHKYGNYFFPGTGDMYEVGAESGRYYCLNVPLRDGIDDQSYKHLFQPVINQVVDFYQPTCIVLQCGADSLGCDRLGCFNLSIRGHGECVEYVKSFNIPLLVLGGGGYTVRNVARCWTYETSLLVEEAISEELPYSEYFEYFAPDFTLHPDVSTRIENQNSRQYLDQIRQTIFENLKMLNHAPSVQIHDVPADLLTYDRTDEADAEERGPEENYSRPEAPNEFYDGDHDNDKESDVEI

With `O=C(NO)c1ccc(C(=O)NCCc2ccccc2)cc1`, the IC50 at Histone deacetylase 4 was above 33.3 µM; on Histone deacetylase 8 it was 1150 nM.
`O=C(Cc1ccccc1)NO` [PHENYLACETOHYDROXAMIC ACID]: the figures for the IC50 on Histone deacetylase 2, on Histone deacetylase 4 and at Histone deacetylase 8 were above 33300 nM, above 33.3 µM and 11600 nM, respectively.
Turning to `CN1CCN(CCNC(=O)c2ccc(C(=O)NO)cc2)CC1`, the IC50 at Histone deacetylase 4 was above 33.3 µM; in [1], 1360 nM; at Histone deacetylase 8, 20900 nM.
`CNC(=O)c1ccc(C(=O)NO)cc1`: the inhibition entry on Histone deacetylase 3 [2] is “inactive”. Further, the inhibition result in [3] is “Active”. Also, the results for the half-maximal inhibitory concentration (IC50) (at Histone deacetylase 4; in assay [1]; at Histone deacetylase 8) were above 33.3 µM, 28 nM and 1950 nM, respectively.
`O=C(NO)C1=CCCC1`: the IC50 was 1790 nM at Histone deacetylase 2; above 33.3 µM on Histone deacetylase 9; 18.3 µM on Histone deacetylase 5; 21.8 µM at Histone deacetylase 4; 30 nM in assay [1]; 0.694 µM on Histone deacetylase 3 [4]. The IC50 was 1090 nM at Histone deacetylase 8 and 638 nM on Histone deacetylase 1. The inhibition entry at Histone deacetylase 3 [2] is “inactive”. Moreover, the inhibition entry in assay [3] is “Dose-dependent effect”.
With `O=C(/C=C/c1ccccc1)NO`, the IC50 on Histone deacetylase 2 came to 457 nM; on Histone deacetylase 4, 19.5 µM; in assay [1] it was 22 nM; at Histone deacetylase 8, 759 nM.
The matching figures for `O=C(CCc1ccccc1)NO`: 2720 nM, above 33.3 µM, 448 nM and 2350 nM.
Turning to `O=C(NO)c1ccc(C(=O)NCCc2ccncc2)cc1`, the IC50 is above 33.3 µM on Histone deacetylase 4, 8 nM in [1] and 1330 nM at Histone deacetylase 8.
On to `O=C(NO)c1ccc(C(=O)NCc2ccccc2)cc1`, for which the half-maximal inhibitory concentration (IC50) at Histone deacetylase 2 is 381 nM; on Histone deacetylase 4, above 33.3 µM; in assay [1], 7 nM; on Histone deacetylase 8, 1030 nM.
As for `O=C(NO)c1ccc(C(=O)Nc2ccccc2)cc1`, the IC50 is above 33.3 µM on Histone deacetylase 4, 37 nM in assay [1] and 689 nM at Histone deacetylase 8.
As to `O=C(NO)C1CCCCC1`, the IC50 at Histone deacetylase 2 was above 33300 nM; at Histone deacetylase 4, above 33.3 µM; in assay [1] it was 376 nM; at Histone deacetylase 8 it was 3720 nM.
As to `O=C(NO)C1=CCCCC1`, the IC50 was found to be 1050 nM on Histone deacetylase 2, 9.13 µM at Histone deacetylase 4, 12 nM in [1] and 431 nM at Histone deacetylase 8. For the same compound, the inhibition entry on Histone deacetylase 3 [2] is “inactive”. Further, the inhibition entry in [3] is “Active”.
In the case of `O=C(NO)c1ccccc1` [BENZOHYDROXAMATE], the IC50 was 7910 nM at Histone deacetylase 2; above 33.3 µM on Histone deacetylase 9; above 33.3 µM on Histone deacetylase 5; above 33.3 µM at Histone deacetylase 4; 115 nM in assay [1]; 7.83 µM at Histone deacetylase 3 [4]. Also, the IC50 was found to be 1920 nM at Histone deacetylase 8 and 4730 nM at Histone deacetylase 1. In addition, the inhibition result at Histone deacetylase 3 [2] was “inactive”. Also, the inhibition entry in [3] was “Active”.
